Data on six compounds can be found in PubChem BioAssay (NCI).

Among the test systems are SK-MEL-2 melanoma; 786-0 renal; MDA-MB-435; SK-MEL-5 melanoma; NCI-H226 lung; NCI-H522 lung; OVCAR-5 ovarian; HL-60(TB) leukemia; A549 NSCLC; HT29 colon.
What all share (test): DTP human tumour cell line panel, 48 h

Structures are written as SMILES.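 Tested at 5 concentrations; 48 h exposure; 96-well plates; endpoints linearly interpolated, else capped at highest concentration. GI50 = concentration required for 50% inhibition of growth. TGI: total growth inhibition.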

On to `O=C(/C=C/c1ccccc1)Nc1ncc(Cc2ccccc2)s1`, for which the GI50 was 0.479 µM in the test with SK-MEL-2 melanoma; 0.598 µM with 786-0 renal; 0.0286 µM in the test with MDA-MB-435; 0.196 µM with SK-MEL-5 melanoma; 1.16 µM in the test on NCI-H226 lung; 0.112 µM in the test on NCI-H522 lung. The GI50 in the test with OVCAR-5 ovarian was 0.469 µM; with HL-60(TB) leukemia, 0.212 µM; in the test with A549 NSCLC, 0.322 µM; with HT29 colon, 0.138 µM. The TGI in the test on SK-MEL-2 melanoma is above 69.1 µM; in the test with 786-0 renal, 10.7 µM; in the test with MDA-MB-435 it was 0.1 µM; in the test with SK-MEL-5 melanoma, 10.1 µM; with NCI-H226 lung it was above 20.8 µM; with NCI-H522 lung, 3.83 µM. The TGI was 35.8 µM in the test on OVCAR-5 ovarian, 0.609 µM with HL-60(TB) leukemia, above 55.1 µM in the test on A549 NSCLC and above 32.8 µM in the test with HT29 colon.
As for `CCN(CC)c1ccc(CNc2cc(C)nc3ccc(OC)cc23)cc1`, the GI50 was 1.83 µM in the test on SK-MEL-2 melanoma; 2.01 µM in the test on 786-0 renal; 1.67 µM with MDA-MB-435; 1.3 µM with SK-MEL-5 melanoma; 3.12 µM in the test with NCI-H226 lung; 1.51 µM with NCI-H522 lung. For the same compound, the GI50 in the test with OVCAR-5 ovarian was 5.37 µM; in the test with HL-60(TB) leukemia, 1.6 µM; with A549 NSCLC it was 6.41 µM; in the test with HT29 colon it was 0.955 µM. In addition, the TGI amounted to 3.56 µM with SK-MEL-2 melanoma; 4.29 µM with 786-0 renal; 3.38 µM in the test on MDA-MB-435; 2.72 µM in the test on SK-MEL-5 melanoma; 14.4 µM in the test with NCI-H226 lung; 3.28 µM in the test with NCI-H522 lung. Moreover, the TGI in the test with OVCAR-5 ovarian turned out to be 18.6 µM; in the test on HL-60(TB) leukemia, 4.23 µM; with A549 NSCLC, 21.2 µM; with HT29 colon it was 3.59 µM.
Take `O=C(CC(O)c1cccnc1)CC(O)c1cccnc1` (centres undefined): the TGI in the test on SK-MEL-2 melanoma is 37 µM; with 786-0 renal, 39.2 µM; with MDA-MB-435, 55.3 µM; with SK-MEL-5 melanoma, 32.2 µM; in the test on NCI-H226 lung, above 100 µM; in the test on NCI-H522 lung it was 32.1 µM. Besides, the TGI is 54 µM with OVCAR-5 ovarian, above 100 µM in the test with HL-60(TB) leukemia, 47.7 µM in the test on A549 NSCLC and 20.7 µM in the test with HT29 colon.
Take `COc1ccccc1CN=C1NC(=O)/C(=C/c2ccc3ncccc3c2)S1`: the GI50 in the test on SK-MEL-2 melanoma was 10.4 µM; with 786-0 renal, 10.9 µM; in the test on MDA-MB-435, 6.02 µM; in the test with SK-MEL-5 melanoma, 12.4 µM; in the test on NCI-H226 lung, 8.43 µM; in the test on NCI-H522 lung, 4.96 µM. For the same compound, the GI50 is 16.3 µM in the test with OVCAR-5 ovarian, 10.3 µM in the test with HL-60(TB) leukemia, 6.93 µM with A549 NSCLC and 8.45 µM in the test on HT29 colon. Also, the TGI with SK-MEL-2 melanoma is above 25 µM; in the test on 786-0 renal it was above 25 µM; in the test on MDA-MB-435, above 21.3 µM; with SK-MEL-5 melanoma it was above 21.5 µM; in the test with NCI-H226 lung, above 25 µM; in the test with NCI-H522 lung it was 13 µM. Besides, the TGI in the test with OVCAR-5 ovarian, in the test with HL-60(TB) leukemia, in the test on A549 NSCLC and in the test with HT29 colon was above 25 µM each time.
For `Cc1ccc(C(=O)Nc2ccc(CN3CCN(C)CC3)c(C(F)(F)F)c2)cc1C#Cc1cnc(N)c2ccc(C#N)cc12`, the GI50 with SK-MEL-2 melanoma was 0.0327 µM; in the test on 786-0 renal it was 0.426 µM; in the test on MDA-MB-435, 0.0259 µM; in the test with SK-MEL-5 melanoma it was 0.331 µM; in the test with NCI-H226 lung, 0.471 µM; in the test with NCI-H522 lung, 0.605 µM. Besides, the GI50 in the test with OVCAR-5 ovarian is 5.85 µM; in the test with HL-60(TB) leukemia, 0.338 µM; in the test on A549 NSCLC it was 0.917 µM; in the test on HT29 colon, 0.211 µM. Also, the TGI in the test with SK-MEL-2 melanoma is 9.51 µM; in the test with 786-0 renal, 3.79 µM; in the test on MDA-MB-435, 1.65 µM; with SK-MEL-5 melanoma, 6.1 µM; with NCI-H226 lung, above 50 µM; with NCI-H522 lung it was above 25.2 µM. Also, the TGI in the test with OVCAR-5 ovarian is 16.4 µM; in the test with HL-60(TB) leukemia, above 50 µM; in the test with A549 NSCLC, 12.8 µM.
On to `Nc1c(C(=O)c2cccc(C(O)(CO)CO)c2)cnn1-c1ccc(F)cc1`, for which the GI50 in the test with SK-MEL-2 melanoma, in the test with 786-0 renal, in the test on MDA-MB-435, with SK-MEL-5 melanoma, in the test on NCI-H226 lung and in the test with NCI-H522 lung was above 25 µM in each case. The GI50 in the test on OVCAR-5 ovarian, with HL-60(TB) leukemia, in the test on A549 NSCLC and in the test on HT29 colon was above 25 µM throughout. For the same compound, the TGI in the test with SK-MEL-2 melanoma, in the test on 786-0 renal, in the test with MDA-MB-435, in the test with SK-MEL-5 melanoma, in the test with NCI-H226 lung and in the test with NCI-H522 lung was above 25 µM in each case. Moreover, the TGI with OVCAR-5 ovarian, in the test with HL-60(TB) leukemia, in the test on A549 NSCLC and with HT29 colon was above 25 µM throughout.
